The structures appear in SMILES notation. Calls of active or inactive are those of the source. The rule behind the calls is not given here.

Series [1] is described as follows: Anti-cholestatic activity in ANIT-induced C57BL/6Nifdc mouse model assessed as decrease in liver CA at 0.03 to 0.1 mg/kg, po upto 42 hrs measured after 48 hrs. Format: ADME, organism-based. The settings on record: in vivo, 90 h, dose 0.03-0.1 mg/kg.
Series [2] can be described thus: Anti-cholestatic activity in ANIT-induced C57BL/6Nifdc mouse model assessed as decrease in liver DHCA at 0.03 to 0.1 mg/kg, po upto 42 hrs measured after 48 hrs. Conditions: in vivo, 90 h, dose 0.03-0.1 mg/kg. Format: ADME, organism-based.
A short description of series [3]: Anti-cholestatic activity in ANIT-induced C57BL/6Nifdc mouse model assessed as decrease in liver 3-DHCA at 0.03 to 0.1 mg/kg, po upto 42 hrs measured after 48 hrs. The settings on record: in vivo, 90 h, dose 0.03-0.1 mg/kg. In kind it is ADME, organism-based.
Series [4] addresses Retinoic acid receptor gamma (Homo sapiens) (UniProt P13631). Put plainly: Agonist activity at RARgamma (unknown origin) transfected in african green monkey COS7 cells assessed transactivation incubated at 1 uM for 16 hrs by luciferase assay. In kind it is cell-based.
Series [5] concerns the target Retinoic acid receptor RXR-gamma (Homo sapiens) (UniProt P48443). Put plainly: Agonist activity at RXRgamma (unknown origin) transfected in african green monkey COS7 cells assessed transactivation incubated at 1 uM for 16 hrs by luciferase assay. In kind it is cell-based.
The target in series [6] is Peroxisome proliferator-activated receptor alpha (Homo sapiens) (UniProt Q07869). Description: Binding affinity to PPARalpha LBD (unknown origin) assessed as thermal stability by measuring change in melting temperature by thermal shift assay. The settings on record: filed as agonist, dose 0.625-10 µM.
Series [7] can be described thus: Anti-cholestatic activity in ANIT-induced C57BL/6Nifdc mouse model assessed as decrease in liver alkaline phosphatase at 0.03 to 0.1 mg/kg, po upto 42 hrs measured after 48 hrs. Format: ADME, organism-based. The settings on record: in vivo, 90 h, dose 0.03-0.1 mg/kg.
Series [8] can be described thus: Anti-cholestatic activity in ANIT-induced C57BL/6Nifdc mouse model assessed as decrease in total p65 level at 0.03 to 0.1 mg/kg, po upto 42 hrs measured after 48 hrs by Western blot analysis. In kind it is ADME, organism-based. The settings on record: in vivo, 90 h, dose 0.03-0.1 mg/kg. A general note: Immunoblotting shows a protein as a band on a membrane.
Series [9] in a line: Down-streaming of Cyp27a1 gene expression in C57BL/6JNifdc mouse liver assessed as hepatic resorption of bile acid administered at 0.03 mg/kg, po for 3 days measured after 6 hrs of last administration by real-time PCR analysis. The settings on record: in vivo, 78 h. In kind it is ADME, organism-based. In general terms: In qPCR the cycle at which signal appears reflects the starting amount.

The target of series [10] is Retinoic acid receptor beta (Homo sapiens) (UniProt P10826). Put plainly: Agonist activity at RARbeta (unknown origin) transfected in african green monkey COS7 cells assessed transactivation incubated at 1 uM for 16 hrs by luciferase assay. In kind it is cell-based.
Series [11] is described as follows: Anti-fibrosis activity in Ccl4-induced C57BL/6Nifdc mouse model assessed as reversal of increased alpha-SMA administered orally for 3 weeks by Western blot analysis. Conditions: in vivo, po, 504 h, dose 0.03-0.1 mg/kg. Format: ADME.
The nature of series [12]: Down-streaming of NTCP gene expression in C57BL/6JNifdc mouse liver assessed as hepatic resorption of bile acid administered at 0.03 to 0.1 mg/kg, po for 3 days measured after 6 hrs of last administration by real-time PCR analysis. The settings on record: in vivo, 78 h, dose 0.03-0.1 mg/kg, time 3.25 day. In kind it is ADME, organism-based.
The target in series [13] is Retinoic acid receptor RXR-alpha (Homo sapiens) (UniProt P19793). Put plainly: Agonist activity at RXRalpha (unknown origin) transfected in african green monkey COS7 cells assessed transactivation incubated at 1 uM for 16 hrs by luciferase assay. In kind it is cell-based.
For series [14], the target named is Nuclear receptor subfamily 1 group I member 2 (Homo sapiens, UniProt O75469). Put plainly: Agonist activity at PXR (unknown origin) transfected in african green monkey COS7 cells assessed transactivation incubated at 1 uM for 16 hrs by luciferase assay. In kind it is cell-based. Conditions: cos7, 16 h.
A short description of series [15]: In vivo upregulation of PPAR alpha in C57BL/6JNifdc mouse liver administered orally for 3 days measured after 6 hrs of last administration by real-time PCR analysis. Format: ADME, organism-based. The settings on record: po, 78 h, dose 0.03-0.1 mg/kg, time 3.25 day.
The nature of series [16]: Upregulation of Mdr2 gene expression in C57BL/6JNifdc mouse liver assessed as increased efflux of bile acid administered at 0.03 to 0.1 mg/kg, po for 3 days measured after 6 hrs of last administration by real-time PCR analysis. Format: ADME, organism-based. The settings on record: in vivo, 78 h, dose 0.03-0.1 mg/kg, time 3.25 day.
The nature of series [17]: Anti-cholestatic activity in ANIT-induced C57BL/6Nifdc mouse model assessed as decrease in liver TBA at 0.03 to 0.1 mg/kg, po upto 42 hrs measured after 48 hrs. In kind it is ADME, organism-based. Conditions: in vivo, 90 h, dose 0.03-0.1 mg/kg.
Series [18] in a line: Anti-cholestatic activity in ANIT-induced C57BL/6Nifdc mouse model assessed as downregulation of proinflammatory Nos2 gene at 0.03 to 0.1 mg/kg, po upto 42 hrs measured after 48 hrs. Format: ADME, organism-based. Conditions: in vivo, 90 h, dose 0.03-0.1 mg/kg.

Sequence of Retinoic acid receptor beta (Homo sapiens) (P10826 whole entry): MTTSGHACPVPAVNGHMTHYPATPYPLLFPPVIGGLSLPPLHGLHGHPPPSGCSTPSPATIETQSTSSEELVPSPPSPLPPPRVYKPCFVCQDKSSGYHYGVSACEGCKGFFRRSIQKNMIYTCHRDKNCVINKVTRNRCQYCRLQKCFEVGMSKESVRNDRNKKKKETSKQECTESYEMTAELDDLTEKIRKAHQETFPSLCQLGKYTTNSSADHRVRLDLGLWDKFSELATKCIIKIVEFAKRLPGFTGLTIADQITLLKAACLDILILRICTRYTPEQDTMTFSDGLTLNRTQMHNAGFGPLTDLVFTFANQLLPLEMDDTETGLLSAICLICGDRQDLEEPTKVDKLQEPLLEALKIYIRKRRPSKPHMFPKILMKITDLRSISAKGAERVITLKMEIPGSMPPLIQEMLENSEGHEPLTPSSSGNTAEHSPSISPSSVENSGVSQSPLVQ
Sequence of Retinoic acid receptor RXR-gamma (Homo sapiens) (P48443 whole entry, the tested form may be a part): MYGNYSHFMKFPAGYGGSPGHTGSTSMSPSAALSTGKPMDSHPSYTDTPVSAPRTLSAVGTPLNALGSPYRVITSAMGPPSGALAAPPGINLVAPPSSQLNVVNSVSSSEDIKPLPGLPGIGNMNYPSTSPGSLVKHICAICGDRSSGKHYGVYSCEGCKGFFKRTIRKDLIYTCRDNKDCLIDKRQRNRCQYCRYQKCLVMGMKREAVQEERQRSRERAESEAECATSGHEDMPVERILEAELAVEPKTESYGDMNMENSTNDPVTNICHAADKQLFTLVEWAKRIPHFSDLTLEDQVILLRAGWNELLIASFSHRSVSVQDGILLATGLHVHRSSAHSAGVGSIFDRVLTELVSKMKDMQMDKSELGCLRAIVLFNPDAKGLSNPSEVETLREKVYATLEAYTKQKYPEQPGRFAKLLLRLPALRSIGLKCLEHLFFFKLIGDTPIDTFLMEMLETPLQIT
Sequence of Peroxisome proliferator-activated receptor alpha (Homo sapiens) (Q07869 whole entry, the tested form may be a part): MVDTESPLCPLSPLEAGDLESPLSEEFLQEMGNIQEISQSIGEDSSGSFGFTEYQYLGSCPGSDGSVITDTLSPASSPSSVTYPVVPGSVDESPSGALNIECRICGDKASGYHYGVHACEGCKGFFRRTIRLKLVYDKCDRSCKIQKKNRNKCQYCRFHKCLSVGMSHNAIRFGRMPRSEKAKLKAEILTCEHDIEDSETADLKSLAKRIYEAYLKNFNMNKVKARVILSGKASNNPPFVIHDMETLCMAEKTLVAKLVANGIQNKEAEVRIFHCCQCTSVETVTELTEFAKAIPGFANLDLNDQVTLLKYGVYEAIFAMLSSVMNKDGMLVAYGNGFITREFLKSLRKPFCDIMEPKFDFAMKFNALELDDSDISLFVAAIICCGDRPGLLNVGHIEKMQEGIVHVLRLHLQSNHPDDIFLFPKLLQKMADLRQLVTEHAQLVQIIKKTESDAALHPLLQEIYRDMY
Sequence of Retinoic acid receptor gamma (Homo sapiens) (P13631 whole entry): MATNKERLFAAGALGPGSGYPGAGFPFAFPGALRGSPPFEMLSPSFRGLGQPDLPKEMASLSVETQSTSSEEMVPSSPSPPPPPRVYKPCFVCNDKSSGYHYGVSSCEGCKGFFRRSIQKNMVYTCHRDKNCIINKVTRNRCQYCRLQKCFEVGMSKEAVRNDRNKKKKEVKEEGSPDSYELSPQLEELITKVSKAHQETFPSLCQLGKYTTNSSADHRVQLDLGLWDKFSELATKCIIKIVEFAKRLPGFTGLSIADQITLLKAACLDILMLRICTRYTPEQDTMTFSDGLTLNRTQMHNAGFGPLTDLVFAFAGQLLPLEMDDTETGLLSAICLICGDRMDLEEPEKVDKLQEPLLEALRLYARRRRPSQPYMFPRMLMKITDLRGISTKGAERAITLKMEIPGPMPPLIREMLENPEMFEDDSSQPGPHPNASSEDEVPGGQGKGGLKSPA
Sequence of Nuclear receptor subfamily 1 group I member 2 (O75469 whole entry): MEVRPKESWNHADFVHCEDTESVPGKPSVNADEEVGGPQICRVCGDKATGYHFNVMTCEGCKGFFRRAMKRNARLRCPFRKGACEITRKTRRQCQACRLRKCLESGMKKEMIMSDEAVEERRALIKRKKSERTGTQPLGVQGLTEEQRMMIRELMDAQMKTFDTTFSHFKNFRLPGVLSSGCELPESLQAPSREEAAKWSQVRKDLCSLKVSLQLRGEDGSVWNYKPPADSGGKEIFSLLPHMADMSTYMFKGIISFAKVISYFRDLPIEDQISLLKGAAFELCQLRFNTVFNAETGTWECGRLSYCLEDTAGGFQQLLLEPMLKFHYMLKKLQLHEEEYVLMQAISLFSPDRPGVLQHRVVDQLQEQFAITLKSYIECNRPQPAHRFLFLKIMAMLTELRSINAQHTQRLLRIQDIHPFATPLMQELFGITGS
Sequence of Retinoic acid receptor RXR-alpha (Homo sapiens) (P19793 whole entry): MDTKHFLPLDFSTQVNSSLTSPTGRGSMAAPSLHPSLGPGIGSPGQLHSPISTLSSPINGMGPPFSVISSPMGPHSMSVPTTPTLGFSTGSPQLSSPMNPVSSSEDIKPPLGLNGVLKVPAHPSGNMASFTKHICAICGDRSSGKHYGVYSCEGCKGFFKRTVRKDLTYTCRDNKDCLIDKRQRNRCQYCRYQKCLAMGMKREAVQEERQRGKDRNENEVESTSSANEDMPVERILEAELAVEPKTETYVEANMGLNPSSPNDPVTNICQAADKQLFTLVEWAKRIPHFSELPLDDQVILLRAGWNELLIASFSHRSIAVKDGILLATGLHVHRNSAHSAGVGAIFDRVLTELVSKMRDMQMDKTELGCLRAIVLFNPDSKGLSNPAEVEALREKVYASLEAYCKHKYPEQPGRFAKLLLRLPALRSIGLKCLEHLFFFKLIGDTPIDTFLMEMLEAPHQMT

Consider `Cc1cc(CN2C(=O)CN(c3ccc(C(F)(F)F)cc3)C2=O)cc(C)c1OC(C)(C)C(=O)O`, for which the outcome in [1], in series [2], in [3], in [7], in series [8] and in series [9] was Active. Also, the Activity entry in series [11] is “Dose-Dependent Effect”; in series [12] it was “Active”; in series [14] it was “Not Active”; in series [15], “Dose-Dependent Effect”; in [16], “Active”; in series [17], “Active”. Also, the result in series [18] was Active. Moreover, the outcome in series [4], in [5], in series [10] and in series [13] was inactive. Moreover, the deltaTm result in [6] is “Dose-Dependent Effect”.

(Values after ChEMBL document CHEMBL5338805, “Discovery of the First Subnanomolar PPARα/δ Dual Agonist for the Treatment of Cholestatic Liver Diseases” (J Med Chem, 2023).)
